This is an account of results in publication PMC5341070, “Small molecule inhibitors block Gas6-inducible TAM activation and tumorigenicity” (Scientific Reports, 2017).

Common to all, as to assay: biochemical
Holding throughout (parameters): KINOMEscan (DiscoverX) competition binding screen of 97 human kinases, percent of control at 10 uM

In experiment [1] the target is T1, JNK2 (Homo sapiens, UniProt P45984).
T1 construct: gene MAPK9
As to the method:
(§1) The KINOMEscan profiling of the inhibitors were performed as per directions by the manufacturer (DiscoverX) against a panel of human protein kinases.

Experiment [2] deals with EPHA2 (Homo sapiens, UniProt P29317). As to the method:
as §1

Experiment [3] has as its target MARK3 (Homo sapiens, UniProt P27448). As to the method: as §1
In experiment [4] the target is IGF1R (Homo sapiens, UniProt P08069). As to the method:
as §1

Experiment [5] concerns the target EGFR(L858R) (Homo sapiens, UniProt P00533, L858R). As to the method: as §1
For experiment [6], the target named is CSNK1D (Homo sapiens, UniProt P48730). As to the method:
as §1

In experiment [7] the target is T2, ABL1(E255K)-phosphorylated (Homo sapiens, UniProt P00519, E255K).
T2 construct: phosphorylated
As to the method:
as §1

Experiment [8] deals with KIT(V559D,T670I) (Homo sapiens, UniProt P10721, T670I/V559D). As to the method:
as §1

Experiment [9] deals with PDGFRB (Homo sapiens, UniProt P09619). As to the method:
as §1

Experiment [10] deals with T3, YANK3 (Homo sapiens, UniProt Q86UX6).
T3 construct: gene STK32C
As to the method:
as §1

Experiment [11] addresses SRPK3 (Homo sapiens, UniProt Q9UPE1). As to the method:
as §1

Experiment [12] has as its target T4, MEK1 (Homo sapiens, UniProt Q02750).
T4 construct: gene MAP2K1
As to the method: as §1

In experiment [13] the target is MKNK2 (Homo sapiens, UniProt Q9HBH9). As to the method:
as §1

The target in experiment [14] is T5, FAK (Homo sapiens, UniProt Q05397).
T5 construct: gene PTK2
As to the method: as §1

Experiment [15] has as its target AKT1 (Homo sapiens, UniProt P31749). As to the method: as §1
Experiment [16] deals with T6, ABL1(T315I)-phosphorylated (Homo sapiens, UniProt P00519, T315I).
T6 construct: phosphorylated
As to the method: as §1

The target in experiment [17] is T7, p38-beta (Homo sapiens, UniProt Q15759).
T7 construct: gene MAPK11
T7 sequence (Q15759 whole entry): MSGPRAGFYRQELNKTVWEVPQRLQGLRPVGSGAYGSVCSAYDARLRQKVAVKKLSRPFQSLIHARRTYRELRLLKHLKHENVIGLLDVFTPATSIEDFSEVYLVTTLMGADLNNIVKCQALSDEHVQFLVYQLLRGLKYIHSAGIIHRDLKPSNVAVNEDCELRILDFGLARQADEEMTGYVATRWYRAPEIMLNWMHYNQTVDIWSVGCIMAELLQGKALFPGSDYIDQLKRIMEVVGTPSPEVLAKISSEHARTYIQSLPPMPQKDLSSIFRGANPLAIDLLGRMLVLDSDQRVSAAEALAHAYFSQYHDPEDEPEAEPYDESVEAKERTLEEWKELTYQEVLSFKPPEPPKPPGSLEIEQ
As to the method:
as §1

Experiment [18] deals with ZAP70 (Homo sapiens, UniProt P43403). As to the method: as §1
ZAP70, sequence (P43403 whole entry): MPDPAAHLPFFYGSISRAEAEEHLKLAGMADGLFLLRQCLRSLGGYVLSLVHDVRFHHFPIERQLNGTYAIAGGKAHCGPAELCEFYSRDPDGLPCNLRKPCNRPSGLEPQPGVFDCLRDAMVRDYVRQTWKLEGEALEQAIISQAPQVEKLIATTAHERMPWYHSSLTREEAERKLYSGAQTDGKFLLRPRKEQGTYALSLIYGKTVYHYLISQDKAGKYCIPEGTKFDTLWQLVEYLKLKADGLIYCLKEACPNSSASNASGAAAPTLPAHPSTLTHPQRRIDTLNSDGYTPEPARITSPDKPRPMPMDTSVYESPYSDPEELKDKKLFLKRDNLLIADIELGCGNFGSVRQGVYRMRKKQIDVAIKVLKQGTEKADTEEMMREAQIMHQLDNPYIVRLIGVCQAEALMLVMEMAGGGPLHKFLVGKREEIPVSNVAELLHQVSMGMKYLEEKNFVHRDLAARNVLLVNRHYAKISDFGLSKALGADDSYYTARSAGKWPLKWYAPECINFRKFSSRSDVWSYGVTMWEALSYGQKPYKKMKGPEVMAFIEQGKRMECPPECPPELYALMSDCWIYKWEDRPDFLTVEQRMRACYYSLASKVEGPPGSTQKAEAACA
The target in experiment [19] is PAK2 (Homo sapiens, UniProt Q13177). As to the method:
as §1

For experiment [20], the target named is T8, IKK-alpha (Homo sapiens, UniProt O15111).
T8 construct: gene CHUK
As to the method:
as §1

Experiment [21] deals with ERBB2 (Homo sapiens, UniProt P04626). As to the method:
as §1

Experiment [22] has as its target INSR (Homo sapiens, UniProt P06213). As to the method:
as §1

The target in experiment [23] is CHEK1 (Homo sapiens, UniProt O14757). As to the method: as §1
Setting [24] is: read-out: R428 %Ctrl @ 10000nM, binding competition.
[25] abbreviates: binding competition, % of control, read-out: RU-301 %Ctrl @ 10000nM.

KIT(V559D,T670I), sequence (P10721 whole entry V559D/T670I): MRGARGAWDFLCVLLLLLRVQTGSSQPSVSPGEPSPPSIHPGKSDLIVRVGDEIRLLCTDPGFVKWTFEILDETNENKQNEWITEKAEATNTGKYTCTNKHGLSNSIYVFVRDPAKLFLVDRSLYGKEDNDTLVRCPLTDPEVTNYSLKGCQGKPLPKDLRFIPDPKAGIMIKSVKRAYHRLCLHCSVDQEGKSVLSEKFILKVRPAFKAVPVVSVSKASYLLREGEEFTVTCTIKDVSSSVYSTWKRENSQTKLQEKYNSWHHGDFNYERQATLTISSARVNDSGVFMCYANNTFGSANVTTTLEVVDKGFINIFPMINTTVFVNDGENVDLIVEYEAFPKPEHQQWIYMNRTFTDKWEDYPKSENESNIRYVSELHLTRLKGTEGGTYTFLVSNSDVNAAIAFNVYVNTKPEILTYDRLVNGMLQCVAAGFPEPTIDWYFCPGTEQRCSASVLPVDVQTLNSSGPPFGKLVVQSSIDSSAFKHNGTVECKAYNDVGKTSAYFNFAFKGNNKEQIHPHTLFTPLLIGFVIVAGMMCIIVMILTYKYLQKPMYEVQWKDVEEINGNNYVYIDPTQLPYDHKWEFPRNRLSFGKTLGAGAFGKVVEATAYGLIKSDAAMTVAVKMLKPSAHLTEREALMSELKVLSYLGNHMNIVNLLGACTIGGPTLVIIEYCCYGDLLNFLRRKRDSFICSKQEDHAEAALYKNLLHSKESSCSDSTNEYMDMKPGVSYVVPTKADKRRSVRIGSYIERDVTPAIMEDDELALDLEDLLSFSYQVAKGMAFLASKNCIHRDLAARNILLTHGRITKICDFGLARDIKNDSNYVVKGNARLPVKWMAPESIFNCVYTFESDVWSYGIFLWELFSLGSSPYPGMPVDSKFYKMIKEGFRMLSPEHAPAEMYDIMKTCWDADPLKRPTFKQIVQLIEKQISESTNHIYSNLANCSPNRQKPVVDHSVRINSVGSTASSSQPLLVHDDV
INSR, sequence (P06213 whole entry): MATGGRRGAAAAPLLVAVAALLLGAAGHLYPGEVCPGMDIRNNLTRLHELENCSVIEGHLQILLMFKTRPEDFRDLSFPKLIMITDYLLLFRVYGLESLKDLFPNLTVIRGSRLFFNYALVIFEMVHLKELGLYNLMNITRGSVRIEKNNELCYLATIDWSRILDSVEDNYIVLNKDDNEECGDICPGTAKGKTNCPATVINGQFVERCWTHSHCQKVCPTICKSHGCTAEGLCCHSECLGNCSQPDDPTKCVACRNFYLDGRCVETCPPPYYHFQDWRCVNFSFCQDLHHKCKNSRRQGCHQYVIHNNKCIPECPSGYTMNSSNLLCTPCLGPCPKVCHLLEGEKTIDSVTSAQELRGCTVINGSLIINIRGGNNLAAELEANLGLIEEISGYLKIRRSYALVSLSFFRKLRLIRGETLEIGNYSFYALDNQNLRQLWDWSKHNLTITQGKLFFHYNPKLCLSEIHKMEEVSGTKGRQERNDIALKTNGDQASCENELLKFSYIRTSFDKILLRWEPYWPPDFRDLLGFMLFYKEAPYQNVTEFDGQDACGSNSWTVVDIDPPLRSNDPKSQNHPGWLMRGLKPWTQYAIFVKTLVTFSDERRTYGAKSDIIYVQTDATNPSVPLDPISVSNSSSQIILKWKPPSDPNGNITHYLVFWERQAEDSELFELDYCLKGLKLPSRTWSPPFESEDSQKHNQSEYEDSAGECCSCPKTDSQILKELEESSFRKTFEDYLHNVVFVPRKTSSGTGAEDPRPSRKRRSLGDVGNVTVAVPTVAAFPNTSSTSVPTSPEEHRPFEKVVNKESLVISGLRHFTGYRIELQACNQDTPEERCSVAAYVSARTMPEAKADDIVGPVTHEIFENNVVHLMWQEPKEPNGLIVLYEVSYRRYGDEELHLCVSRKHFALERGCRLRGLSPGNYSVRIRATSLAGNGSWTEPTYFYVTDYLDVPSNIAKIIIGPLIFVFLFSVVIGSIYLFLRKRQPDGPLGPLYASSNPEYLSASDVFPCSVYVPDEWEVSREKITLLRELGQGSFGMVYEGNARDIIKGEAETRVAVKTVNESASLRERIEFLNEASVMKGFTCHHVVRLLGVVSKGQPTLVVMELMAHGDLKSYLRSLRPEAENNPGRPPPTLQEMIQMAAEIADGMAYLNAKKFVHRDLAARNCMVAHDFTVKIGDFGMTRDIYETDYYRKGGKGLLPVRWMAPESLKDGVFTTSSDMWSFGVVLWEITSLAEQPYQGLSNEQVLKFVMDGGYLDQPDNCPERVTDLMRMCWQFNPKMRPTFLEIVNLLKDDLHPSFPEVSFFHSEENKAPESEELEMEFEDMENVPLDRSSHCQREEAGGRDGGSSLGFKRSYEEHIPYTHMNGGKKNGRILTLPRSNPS
PAK2, sequence (Q13177 whole entry): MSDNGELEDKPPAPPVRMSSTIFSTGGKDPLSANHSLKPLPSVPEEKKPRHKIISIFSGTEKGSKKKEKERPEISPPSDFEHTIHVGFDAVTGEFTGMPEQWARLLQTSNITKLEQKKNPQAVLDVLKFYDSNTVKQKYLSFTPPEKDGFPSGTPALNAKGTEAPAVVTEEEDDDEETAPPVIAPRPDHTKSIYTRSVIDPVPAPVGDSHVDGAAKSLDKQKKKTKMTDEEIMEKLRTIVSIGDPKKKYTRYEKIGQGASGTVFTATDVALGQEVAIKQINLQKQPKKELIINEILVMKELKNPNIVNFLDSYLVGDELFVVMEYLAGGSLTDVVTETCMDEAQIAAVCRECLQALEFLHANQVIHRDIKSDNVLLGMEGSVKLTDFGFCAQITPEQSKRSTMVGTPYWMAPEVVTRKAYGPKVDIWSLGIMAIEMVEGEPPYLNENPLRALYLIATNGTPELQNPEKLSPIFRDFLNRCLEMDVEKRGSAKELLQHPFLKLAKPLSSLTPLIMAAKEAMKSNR
MKNK2, sequence (Q9HBH9 whole entry): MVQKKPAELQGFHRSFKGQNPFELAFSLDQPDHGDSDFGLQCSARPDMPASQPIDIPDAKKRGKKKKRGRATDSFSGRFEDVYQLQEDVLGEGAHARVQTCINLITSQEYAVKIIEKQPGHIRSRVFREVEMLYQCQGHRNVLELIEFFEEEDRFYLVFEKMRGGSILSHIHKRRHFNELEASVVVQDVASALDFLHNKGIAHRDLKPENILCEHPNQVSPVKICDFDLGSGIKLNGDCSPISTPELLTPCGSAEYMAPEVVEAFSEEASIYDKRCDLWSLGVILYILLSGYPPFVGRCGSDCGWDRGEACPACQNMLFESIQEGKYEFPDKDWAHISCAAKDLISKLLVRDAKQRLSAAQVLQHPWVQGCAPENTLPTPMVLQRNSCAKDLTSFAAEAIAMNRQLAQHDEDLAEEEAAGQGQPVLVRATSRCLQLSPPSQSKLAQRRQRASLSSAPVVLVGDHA
SRPK3, sequence (Q9UPE1 whole entry): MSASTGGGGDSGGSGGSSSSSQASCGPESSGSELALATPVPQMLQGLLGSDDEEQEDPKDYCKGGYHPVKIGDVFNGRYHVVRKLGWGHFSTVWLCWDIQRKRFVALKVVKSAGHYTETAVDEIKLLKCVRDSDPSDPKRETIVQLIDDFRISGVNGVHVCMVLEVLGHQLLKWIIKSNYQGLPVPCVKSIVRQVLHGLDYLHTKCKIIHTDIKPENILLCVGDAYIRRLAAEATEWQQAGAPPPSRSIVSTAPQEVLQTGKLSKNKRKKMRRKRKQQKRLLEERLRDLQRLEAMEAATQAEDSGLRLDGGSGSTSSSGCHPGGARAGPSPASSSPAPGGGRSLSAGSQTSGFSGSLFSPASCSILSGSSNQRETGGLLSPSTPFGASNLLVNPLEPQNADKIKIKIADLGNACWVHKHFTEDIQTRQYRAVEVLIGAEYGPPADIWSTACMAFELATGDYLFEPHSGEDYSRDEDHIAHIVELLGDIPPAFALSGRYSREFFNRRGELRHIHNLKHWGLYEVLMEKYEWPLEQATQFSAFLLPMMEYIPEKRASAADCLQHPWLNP

For the compound `Nc1nc(Nc2ccc3c(c2)CC[C@@H](N2CCCC2)CC3)nn1-c1cc2c(nn1)-c1ccccc1CCC2` [R428], the percent of control binding at 10 µM in experiment [1] (setting [24]) amounted to 96%; in experiment [2] (setting [24]), 71%; in [3] (setting [24]), 49%; in [4] (setting [24]), 99%; in experiment [5] (setting [24]), 10%; in [6] (setting [24]), 98%. In addition, the percent of control binding at 10 µM in experiment [7] (setting [24]) was 0.25%; in experiment [8] (setting [24]), 0.05%; in [9] (setting [24]), 0%; in [10] (setting [24]) it was 100%; in experiment [11] (setting [24]), 3.8%; in experiment [12] (setting [24]), 3%. For the same compound, the percent of control binding at 10 µM amounted to 0% in experiment [13] (setting [24]); 83% in experiment [14] (setting [24]); 100% in [15] (setting [24]); 0.9% in experiment [16] (setting [24]); 84% in [17] (setting [24]); 33% in [18] (setting [24]). Also, the percent of control binding at 10 µM came to 69% in experiment [19] (setting [24]); 0.5% in [20] (setting [24]); 46% in [21] (setting [24]); 14% in experiment [22] (setting [24]); 15% in experiment [23] (setting [24]).
In the case of `Cc1cc(CSc2ccccc2C(=O)NCCNc2ccc(C(F)(F)F)cc2[N+](=O)[O-])on1` [RU-301], the remaining binding at 10 µM in [1] (setting [25]) turned out to be 97%; in experiment [2] (setting [25]), 96%; in experiment [3] (setting [25]), 87%; in [4] (setting [25]) it was 98%; in experiment [5] (setting [25]), 94%; in experiment [6] (setting [25]) it was 94%. Also, the remaining binding at 10 µM was 94% in experiment [7] (setting [25]); 85% in experiment [8] (setting [25]); 91% in [9] (setting [25]); 100% in experiment [10] (setting [25]); 80% in [11] (setting [25]); 75% in experiment [12] (setting [25]). Further, the remaining binding at 10 µM in experiment [13] (setting [25]) turned out to be 100%; in experiment [14] (setting [25]), 100%; in experiment [15] (setting [25]), 88%; in experiment [16] (setting [25]), 100%; in [17] (setting [25]) it was 100%; in experiment [18] (setting [25]), 76%. In addition, the remaining binding at 10 µM in experiment [19] (setting [25]) was determined as 96%; in experiment [20] (setting [25]), 86%; in experiment [21] (setting [25]), 94%; in experiment [22] (setting [25]), 89%; in experiment [23] (setting [25]), 83%.
